Source: ChEMBL document CHEMBL1201862, “PubChem BioAssay data set” (2004)
The source made the active and inactive calls.

Tests used:
Hexokinase-1 = target: T1, Hexokinase-1 (Homo sapiens, UniProt P19367); assay: SAR analysis of small molecule inhibitors of hexokinase domain containing I (HKDC1) in the hexokinase 1 selectivity assay. [Related pubchem assays (depositor defined):AID493160, AID493190]; format: functional
T1 sequence (P19367 whole entry): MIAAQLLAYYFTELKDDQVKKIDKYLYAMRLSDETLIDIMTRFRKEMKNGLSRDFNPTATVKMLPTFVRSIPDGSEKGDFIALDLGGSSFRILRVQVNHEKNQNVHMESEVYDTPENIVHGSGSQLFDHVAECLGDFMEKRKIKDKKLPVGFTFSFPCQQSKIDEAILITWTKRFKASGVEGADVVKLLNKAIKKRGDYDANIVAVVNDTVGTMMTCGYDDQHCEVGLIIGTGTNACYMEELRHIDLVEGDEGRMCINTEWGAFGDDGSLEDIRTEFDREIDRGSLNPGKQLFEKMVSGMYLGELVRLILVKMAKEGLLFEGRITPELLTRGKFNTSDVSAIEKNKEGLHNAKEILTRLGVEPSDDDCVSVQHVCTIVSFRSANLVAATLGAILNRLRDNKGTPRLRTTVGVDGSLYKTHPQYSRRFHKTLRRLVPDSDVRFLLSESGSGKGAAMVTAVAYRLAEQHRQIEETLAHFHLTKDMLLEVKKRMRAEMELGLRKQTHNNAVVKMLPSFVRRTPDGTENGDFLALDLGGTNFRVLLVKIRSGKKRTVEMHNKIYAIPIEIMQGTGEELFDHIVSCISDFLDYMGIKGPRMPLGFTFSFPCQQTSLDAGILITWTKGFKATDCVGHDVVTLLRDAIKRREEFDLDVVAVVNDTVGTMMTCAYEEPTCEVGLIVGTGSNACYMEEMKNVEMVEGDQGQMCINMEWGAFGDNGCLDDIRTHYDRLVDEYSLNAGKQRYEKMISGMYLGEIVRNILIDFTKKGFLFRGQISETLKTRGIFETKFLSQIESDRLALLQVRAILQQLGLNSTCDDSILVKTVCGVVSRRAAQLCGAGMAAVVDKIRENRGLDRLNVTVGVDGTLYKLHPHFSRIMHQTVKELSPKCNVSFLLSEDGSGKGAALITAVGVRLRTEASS

Hexokinase HKDC1 = target: T2, Hexokinase HKDC1 (Homo sapiens, UniProt Q2TB90); assay: SAR analysis of small molecule inhibitors of hexokinase domain containing I (HKDC1). [Related pubchem assays (depositor defined):AID493160, AID493190]; format: functional
T2 sequence (Q2TB90 whole entry): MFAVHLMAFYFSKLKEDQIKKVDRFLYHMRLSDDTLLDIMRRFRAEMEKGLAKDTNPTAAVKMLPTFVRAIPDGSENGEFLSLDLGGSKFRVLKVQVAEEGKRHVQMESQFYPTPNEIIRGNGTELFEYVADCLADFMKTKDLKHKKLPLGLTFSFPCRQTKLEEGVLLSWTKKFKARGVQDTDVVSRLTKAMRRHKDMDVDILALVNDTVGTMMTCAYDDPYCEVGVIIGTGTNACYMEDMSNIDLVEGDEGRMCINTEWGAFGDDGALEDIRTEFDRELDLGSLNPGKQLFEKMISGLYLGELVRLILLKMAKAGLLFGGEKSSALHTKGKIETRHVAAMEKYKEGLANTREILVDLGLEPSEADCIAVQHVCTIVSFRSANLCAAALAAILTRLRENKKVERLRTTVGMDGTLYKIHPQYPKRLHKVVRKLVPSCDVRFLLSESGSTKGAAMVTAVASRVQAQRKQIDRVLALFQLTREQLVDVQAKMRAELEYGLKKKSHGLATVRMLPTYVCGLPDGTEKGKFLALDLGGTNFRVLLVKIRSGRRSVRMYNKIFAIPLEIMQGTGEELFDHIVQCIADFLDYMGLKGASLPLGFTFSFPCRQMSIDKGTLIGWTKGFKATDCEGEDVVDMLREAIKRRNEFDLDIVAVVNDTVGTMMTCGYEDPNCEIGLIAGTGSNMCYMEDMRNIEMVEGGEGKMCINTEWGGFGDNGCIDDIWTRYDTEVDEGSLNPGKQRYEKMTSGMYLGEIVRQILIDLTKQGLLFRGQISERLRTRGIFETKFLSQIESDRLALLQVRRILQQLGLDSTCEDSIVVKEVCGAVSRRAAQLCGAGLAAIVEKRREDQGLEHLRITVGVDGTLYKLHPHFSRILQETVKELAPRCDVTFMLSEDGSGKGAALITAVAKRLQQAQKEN

Phospholipase D2 = Phospholipase D2 (Homo sapiens, UniProt O14939); assay: cellular phospholipase D2 inhibition IC50 – cell-based, dose response (AID 602147); format: functional;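 also: cellular assay in HEK293 cells overexpressing GFP-tagged PLD2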
Phospholipase D1 = Phospholipase D1 (Homo sapiens, UniProt Q13393); assay: cellular phospholipase D1 inhibition IC50 – cell-based, dose response (AID 602151); format: functional;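 also: cellular PLD1 assay in Calu-1 cells stimulated with PMA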
[1] = target: T3, Sentrin-specific protease 6 (Homo sapiens, UniProt Q9GZR1); assay: inhibition of human SENP6 catalytic domain – biochemical, luminescence, set 2, SAR follow-up (AID 588598); format: functional
T3 sequence (Q9GZR1 whole entry): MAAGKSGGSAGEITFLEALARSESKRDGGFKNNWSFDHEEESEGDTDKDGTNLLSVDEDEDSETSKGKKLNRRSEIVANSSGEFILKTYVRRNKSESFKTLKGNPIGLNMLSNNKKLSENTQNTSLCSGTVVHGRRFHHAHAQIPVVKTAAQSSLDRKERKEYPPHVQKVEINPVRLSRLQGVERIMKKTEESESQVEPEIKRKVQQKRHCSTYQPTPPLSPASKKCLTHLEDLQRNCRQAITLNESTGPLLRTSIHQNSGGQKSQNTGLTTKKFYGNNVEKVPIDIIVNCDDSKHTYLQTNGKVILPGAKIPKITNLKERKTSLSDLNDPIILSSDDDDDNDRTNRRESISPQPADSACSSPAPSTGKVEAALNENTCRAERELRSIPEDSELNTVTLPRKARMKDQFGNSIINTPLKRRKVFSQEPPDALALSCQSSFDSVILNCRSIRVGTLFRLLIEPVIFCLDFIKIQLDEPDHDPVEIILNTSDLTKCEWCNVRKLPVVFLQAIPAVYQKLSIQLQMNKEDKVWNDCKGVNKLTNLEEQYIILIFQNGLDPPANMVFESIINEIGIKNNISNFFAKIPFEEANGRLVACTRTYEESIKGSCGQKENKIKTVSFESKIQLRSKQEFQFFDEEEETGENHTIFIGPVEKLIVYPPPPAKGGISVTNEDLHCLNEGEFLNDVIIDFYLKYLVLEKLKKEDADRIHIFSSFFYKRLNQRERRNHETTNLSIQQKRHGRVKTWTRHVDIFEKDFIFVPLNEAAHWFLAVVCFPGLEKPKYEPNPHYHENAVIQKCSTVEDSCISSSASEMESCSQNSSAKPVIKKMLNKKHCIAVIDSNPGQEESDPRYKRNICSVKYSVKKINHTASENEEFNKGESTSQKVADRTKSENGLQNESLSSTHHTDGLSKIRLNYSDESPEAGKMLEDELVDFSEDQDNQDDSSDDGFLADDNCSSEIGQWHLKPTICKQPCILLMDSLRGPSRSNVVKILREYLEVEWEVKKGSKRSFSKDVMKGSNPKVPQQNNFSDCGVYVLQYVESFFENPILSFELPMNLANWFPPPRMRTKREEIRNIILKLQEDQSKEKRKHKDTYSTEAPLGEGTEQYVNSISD

[2] = target: T4, Sentrin-specific protease 7 (Homo sapiens, UniProt Q9BQF6); assay: inhibition of human SENP7 cleavage activity – biochemical, luminescence, set 2, SAR follow-up (AID 588600); format: functional
T4 sequence (Q9BQF6 whole entry): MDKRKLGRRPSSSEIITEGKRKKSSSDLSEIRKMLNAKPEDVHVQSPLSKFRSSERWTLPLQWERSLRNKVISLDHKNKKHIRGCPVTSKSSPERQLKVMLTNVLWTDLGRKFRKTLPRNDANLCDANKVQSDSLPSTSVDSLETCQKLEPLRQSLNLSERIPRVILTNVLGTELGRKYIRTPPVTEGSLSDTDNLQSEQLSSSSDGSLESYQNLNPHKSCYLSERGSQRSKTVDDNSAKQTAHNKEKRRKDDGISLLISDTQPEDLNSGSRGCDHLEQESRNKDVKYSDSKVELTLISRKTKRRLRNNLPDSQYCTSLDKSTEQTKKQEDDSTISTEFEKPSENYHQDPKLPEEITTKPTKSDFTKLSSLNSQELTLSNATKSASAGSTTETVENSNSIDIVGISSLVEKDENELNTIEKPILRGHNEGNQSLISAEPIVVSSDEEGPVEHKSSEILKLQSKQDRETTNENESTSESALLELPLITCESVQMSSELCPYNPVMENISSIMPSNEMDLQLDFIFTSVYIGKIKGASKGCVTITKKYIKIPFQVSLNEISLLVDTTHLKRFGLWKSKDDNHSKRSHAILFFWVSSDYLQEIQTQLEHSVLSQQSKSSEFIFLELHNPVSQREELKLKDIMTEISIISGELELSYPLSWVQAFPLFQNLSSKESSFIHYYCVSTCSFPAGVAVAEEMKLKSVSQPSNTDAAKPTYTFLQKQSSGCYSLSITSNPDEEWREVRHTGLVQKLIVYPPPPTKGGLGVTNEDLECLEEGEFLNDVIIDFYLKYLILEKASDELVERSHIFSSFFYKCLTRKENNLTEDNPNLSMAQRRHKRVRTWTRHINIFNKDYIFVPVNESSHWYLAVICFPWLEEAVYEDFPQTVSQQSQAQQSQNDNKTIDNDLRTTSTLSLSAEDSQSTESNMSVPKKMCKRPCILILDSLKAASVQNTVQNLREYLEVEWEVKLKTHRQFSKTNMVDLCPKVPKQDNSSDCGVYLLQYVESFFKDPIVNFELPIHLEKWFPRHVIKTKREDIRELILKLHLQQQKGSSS

Caspase-3 = target: T5, Caspase-3 (Homo sapiens, UniProt P42574); assay: inhibition of recombinant caspase-3 activity – biochemical, luminescence, set 2, selectivity assay for SENP protease inhibitor project, SAR follow-up (AID 588599); format: functional
T5 sequence (P42574 whole entry): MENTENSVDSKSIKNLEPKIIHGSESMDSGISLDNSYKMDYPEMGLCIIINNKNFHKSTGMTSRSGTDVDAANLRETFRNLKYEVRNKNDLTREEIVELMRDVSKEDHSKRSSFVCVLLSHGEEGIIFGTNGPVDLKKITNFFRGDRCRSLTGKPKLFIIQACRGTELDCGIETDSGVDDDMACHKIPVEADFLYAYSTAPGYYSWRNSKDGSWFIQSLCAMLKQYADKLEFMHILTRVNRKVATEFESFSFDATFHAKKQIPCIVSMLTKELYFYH

[3] = target: T6, Sentrin-specific protease 8 (Homo sapiens, UniProt Q96LD8); assay: inhibition of sentrin protease 8 – biochemical, luminescence, set 2, SAR follow-up (AID 588601); format: functional
T6 sequence (Q96LD8 whole entry): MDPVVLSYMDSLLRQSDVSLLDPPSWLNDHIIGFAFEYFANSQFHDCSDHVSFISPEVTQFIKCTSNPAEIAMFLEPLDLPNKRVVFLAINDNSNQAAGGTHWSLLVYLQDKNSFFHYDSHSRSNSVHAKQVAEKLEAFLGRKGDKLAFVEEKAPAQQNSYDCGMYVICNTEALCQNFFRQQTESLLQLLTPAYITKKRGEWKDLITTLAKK

INS1 [4] = assay: INS-1E mitochondrial potential loss inhibitors – cell-based, JC-1 fluorescence, dry powder, set 2, dose response (AID 488867); format: functional; conditions: Rattus norvegicus
INS1 [5] = assay: INS-1E mitochondrial potential rescue under cytokines – cell-based, JC-1 fluorescence ratio, dry powder, dose response (AID 488931); format: functional; conditions: Rattus norvegicus
INS1 [6] = assay: beta-cell survival under cytokine stress – INS-1E, ATP luminescence, dry powder, dose response (AID 488844); format: functional, cell-based; conditions: Rattus norvegicus
[7] = Luminescence Cell-Based Dose Response HTS to Identify Inhibitors of 5'UTR Stem-Loop Driven Prion Protein mRNA Translation in H4 Neuroglioblastoma Cells. [Related pubchem assays: 1827 (Project Summary), 1813 (Primary HTS)]; format: functional
[8] = luciferase reporter signal suppression in cells – H4 neuroglioma cells, luminescence, dose response (AID 1990); format: functional, cell-based
[9] = alpha-synuclein stem-loop luciferase translation blockers – H4 neuroglioma cells, luminescence, confirmation (AID 1988); format: functional, cell-based
[10] = target: Luciferin 4-monooxygenase (Photuris pensylvanica, UniProt Q27757); assay: inhibition of Cell Titer Glo luciferase signal – biochemical, luminescence, cherry-picks, counter-screen for HSF-1 reporter inhibitor project, dose response (AID 588847)
[11] = decrease of insulin promoter-GFP reporter – imaging, high-content screening, mouse beta cells (AID 1628); format: functional; conditions: MIN6
[12] = MIN6 cell viability loss – mouse insulinoma, cytotoxicity control, dose response (AID 2122); format: functional;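 also: confirmatory high-throughput counterscreen run to flag cytotoxic compounds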

Luciferin 4-monooxygenase, sequence (Q27757 whole entry): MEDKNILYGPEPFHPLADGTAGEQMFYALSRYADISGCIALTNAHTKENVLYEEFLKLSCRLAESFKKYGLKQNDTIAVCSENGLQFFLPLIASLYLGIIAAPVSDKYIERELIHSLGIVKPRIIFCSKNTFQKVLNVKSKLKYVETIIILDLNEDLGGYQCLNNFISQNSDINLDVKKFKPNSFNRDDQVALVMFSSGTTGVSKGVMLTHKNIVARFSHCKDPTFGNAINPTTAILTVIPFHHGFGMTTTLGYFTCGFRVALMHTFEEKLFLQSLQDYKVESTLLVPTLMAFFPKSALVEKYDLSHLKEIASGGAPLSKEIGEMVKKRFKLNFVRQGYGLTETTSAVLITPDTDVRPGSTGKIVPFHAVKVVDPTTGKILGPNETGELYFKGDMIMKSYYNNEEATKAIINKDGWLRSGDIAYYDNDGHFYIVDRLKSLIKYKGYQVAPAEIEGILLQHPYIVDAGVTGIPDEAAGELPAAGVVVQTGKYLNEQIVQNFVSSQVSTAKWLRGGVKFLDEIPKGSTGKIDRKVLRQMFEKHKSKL
Phospholipase D1, sequence (Q13393 whole entry, the tested form may be a part): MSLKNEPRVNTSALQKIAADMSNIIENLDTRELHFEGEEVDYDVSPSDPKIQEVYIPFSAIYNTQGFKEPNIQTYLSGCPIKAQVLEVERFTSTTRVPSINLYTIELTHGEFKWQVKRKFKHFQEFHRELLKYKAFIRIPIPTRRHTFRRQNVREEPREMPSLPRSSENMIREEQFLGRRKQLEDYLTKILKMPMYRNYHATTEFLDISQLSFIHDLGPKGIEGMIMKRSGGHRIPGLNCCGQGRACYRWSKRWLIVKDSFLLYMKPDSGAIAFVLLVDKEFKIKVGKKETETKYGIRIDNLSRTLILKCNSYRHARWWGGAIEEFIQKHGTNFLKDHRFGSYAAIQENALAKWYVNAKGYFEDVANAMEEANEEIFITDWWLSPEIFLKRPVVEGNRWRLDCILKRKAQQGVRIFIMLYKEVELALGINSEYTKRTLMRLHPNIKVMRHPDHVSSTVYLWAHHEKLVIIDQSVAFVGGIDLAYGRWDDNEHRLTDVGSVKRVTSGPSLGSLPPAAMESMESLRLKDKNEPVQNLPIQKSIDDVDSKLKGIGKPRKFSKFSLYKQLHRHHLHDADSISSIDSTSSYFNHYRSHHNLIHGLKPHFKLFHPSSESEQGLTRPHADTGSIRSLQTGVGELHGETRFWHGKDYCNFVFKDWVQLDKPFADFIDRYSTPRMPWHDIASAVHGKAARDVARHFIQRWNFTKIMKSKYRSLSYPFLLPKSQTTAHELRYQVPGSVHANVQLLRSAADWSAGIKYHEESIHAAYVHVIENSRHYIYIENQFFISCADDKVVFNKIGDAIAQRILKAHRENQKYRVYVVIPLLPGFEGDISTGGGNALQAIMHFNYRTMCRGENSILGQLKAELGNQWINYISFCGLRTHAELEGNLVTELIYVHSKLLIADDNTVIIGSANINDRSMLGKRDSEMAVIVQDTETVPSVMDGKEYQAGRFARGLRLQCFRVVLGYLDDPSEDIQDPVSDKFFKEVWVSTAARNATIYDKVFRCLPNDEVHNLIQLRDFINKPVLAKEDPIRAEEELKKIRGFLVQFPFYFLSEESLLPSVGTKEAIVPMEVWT
Phospholipase D2, sequence (O14939 whole entry): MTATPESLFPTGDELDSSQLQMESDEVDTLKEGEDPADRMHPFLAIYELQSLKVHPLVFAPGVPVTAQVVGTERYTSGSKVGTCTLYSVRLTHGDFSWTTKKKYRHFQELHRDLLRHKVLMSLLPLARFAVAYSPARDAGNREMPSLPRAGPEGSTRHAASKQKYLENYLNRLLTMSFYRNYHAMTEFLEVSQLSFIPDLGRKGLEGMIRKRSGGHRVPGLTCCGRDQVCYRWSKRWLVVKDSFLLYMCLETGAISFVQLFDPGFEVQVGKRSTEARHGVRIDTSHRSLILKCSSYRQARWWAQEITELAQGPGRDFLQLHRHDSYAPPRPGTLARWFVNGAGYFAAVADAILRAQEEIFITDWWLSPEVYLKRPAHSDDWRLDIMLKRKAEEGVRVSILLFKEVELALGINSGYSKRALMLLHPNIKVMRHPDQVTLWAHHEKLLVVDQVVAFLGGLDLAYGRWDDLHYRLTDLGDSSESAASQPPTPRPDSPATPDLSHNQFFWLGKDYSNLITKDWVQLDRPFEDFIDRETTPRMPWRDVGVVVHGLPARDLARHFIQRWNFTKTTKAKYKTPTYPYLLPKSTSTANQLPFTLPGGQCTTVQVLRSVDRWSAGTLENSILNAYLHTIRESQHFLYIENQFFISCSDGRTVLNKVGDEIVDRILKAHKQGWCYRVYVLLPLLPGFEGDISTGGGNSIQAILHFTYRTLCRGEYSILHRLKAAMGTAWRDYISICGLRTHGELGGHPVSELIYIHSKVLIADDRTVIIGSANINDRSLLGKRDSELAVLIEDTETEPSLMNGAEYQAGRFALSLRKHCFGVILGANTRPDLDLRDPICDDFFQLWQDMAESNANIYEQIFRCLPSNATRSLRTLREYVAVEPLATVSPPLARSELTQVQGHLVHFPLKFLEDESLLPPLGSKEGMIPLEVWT

With `Nc1n[nH]c(SCC(=O)Nc2cc(S(=O)(=O)N3CCOCC3)ccc2Cl)n1` the IC50 (Hexokinase-1) was > 80 µM (inactive) and the IC50 (Hexokinase HKDC1) was > 80 µM (inactive).

With `C[C@@H](CN1CCC2(CC1)C(=O)NCN2c1ccc(F)c(F)c1)NC(=O)c1ccc2ccccc2c1` the IC50 (Phospholipase D2) was 0.3 µM (active) and the IC50 (Phospholipase D1) was 0.1 µM (active).

In the case of `CS(=O)(=O)c1ccc2nc(NC(=O)c3ccc(OC(F)(F)F)cc3)sc2c1`, the IC50 [1] is reported as > 99 µM (inactive), the IC50 [2] is reported as > 99 µM (inactive) and the IC50 (Caspase-3) is reported as > 99 µM (inactive). The IC50 [3] was > 99 µM (inactive).

In the case of `COc1ccc(S(=O)(=O)N(C)C[C@@H]2Oc3c(NC(=O)Nc4ccccc4)cccc3C(=O)N([C@H](C)CO)C[C@H]2C)cc1`, the AC50 (INS1 [4]) is reported as > 260 µM (inactive), the AC50 (INS1 [5]) is reported as > 195 µM (inactive) and the AC50 (INS1 [6]) is reported as 22.8 µM (active).

In the case of `C[C@@H]1C[C@H]2[C@@H]3CCC4=CC(=O)C=C[C@]4(C)[C@@]3(F)[C@@H](O)C[C@]2(C)[C@@]1(O)C(=O)CO` [DEXAMETHASONE], the EC50 [7] is reported as > 120 µM (not active), the EC50 [8] is reported as > 120 µM (not active) and the EC50 [9] is reported as > 120 µM (not active). For the same molecule, the AC50 [10] was > 52 µM (inactive), the IC50 [11] was < 0.25 µM (active) and the IC50 [12] was > 16 µM (inactive).
